Test results from ChEMBL document CHEMBL4732263 (Bioorg Med Chem, 2021).
Converted amounts (≈) assume the structure as drawn.

Assays:
[1] = Clearance in Balb/C mouse blood at 2.5 mg/kg, iv up to 24 hrs by LC-MS analysis; assay type: ADME, organism-based; details: whole blood
[2] = Volume of distribution at steady state in Sprague-Dawley rat blood at 2.5 mg/kg, iv up to 24 hrs by LC-MS analysis; assay type: ADME, organism-based; details: whole blood, read-out: Vdss
in vitro [3] = details: mouse, liver microsomes
in vitro [4] = details: human, Caco-2
[5] = Volume of distribution at steady state in Balb/C mouse plasma at 2.5 mg/kg, iv up to 24 hrs by LC-MS analysis; assay type: ADME, organism-based; details: read-out: Vdss
[6] = Volume of distribution at steady state in Balb/C mouse blood at 2.5 mg/kg, iv up to 24 hrs by LC-MS analysis; assay type: ADME, organism-based; details: whole blood, read-out: Vdss
in vitro [7] = details: human, Caco-2; remark: listed apart in the source
physchem [8] = details: HCl, pH 2, pH 2
[9] = octanol/water, pH 7.4
[10] = Clearance in Sprague-Dawley rat renal blood at 2.5 mg/kg, iv up to 24 hrs by LC-MS analysis; assay type: ADME, organism-based; details: whole blood
[11] = Drug metabolism in Sprague-Dawley rat assessed amiloride formation at 2.5 mg/kg, iv after 4.8 mins by LC-MS analysis; assay type: ADME, organism-based; details: in vivo, 0.08 h
in vitro [12] = details: Balb/C, mouse, plasma; at 1 µg/mL
in vitro [13] = details: human, Caco-2; remark: listed apart in the source
in vitro [14] = details: mouse, liver microsomes; remark: listed apart in the source
cells = details: Homo sapiens, HEK293, 10 min
in vitro [15] = details: Balb/C, mouse, plasma; at 1 µg/mL; remark: listed apart in the source
[16] = mouse, microsomes, 1 h, 1 µM
[17] = AUC(0 to infinity) in Balb/C mouse plasma at 2.5 mg/kg, iv up to 24 hrs by LC-MS analysis; assay type: ADME, organism-based; parameters: route intravenous, dose 2.5 mg/kg, time <=24
in vitro [18] = details: human, Caco-2; remark: listed apart in the source
[19] = Ratio of drug level in blood to plasma in Balb/C mouse plasma at 2.5 mg/kg, iv up to 24 hrs by LC-MS analysis; assay type: ADME, organism-based; details: whole blood and plasma
in vitro [20] = details: human, liver microsomes
in vitro [21] = details: human, Caco-2; remark: listed apart in the source
in vitro [22] = details: human, liver microsomes; remark: listed apart in the source
[23] = target: Voltage-gated inwardly rectifying potassium channel KCNH2 (Homo sapiens, UniProt Q12809)
[24] = target: Sodium channel protein type 5 subunit alpha (Homo sapiens, UniProt Q14524)
physchem [25] = details: PBS, pH 6.5, pH 6.5
[26] = Half life in Sprague-Dawley rat at 2.5 mg/kg, iv up to 24 hrs by LC-MS analysis; assay type: ADME, organism-based; details: in vivo
[27] = Apparent half life in Balb/C mouse at 2.5 mg/kg, iv up to 24 hrs by LC-MS analysis; assay type: ADME, organism-based; details: in vivo, read-out: t1/2(app) (converted)
[28] = Plasma clearance in Sprague-Dawley rat at 2.5 mg/kg, iv up to 24 hrs by LC-MS analysis; assay type: ADME, organism-based
[29] = mouse, blood, 2 h; at 1 µg/mL
[30] = human, microsomes, 1 h, 1 µM
[31] = Clearance in Sprague-Dawley rat blood at 2.5 mg/kg, iv up to 24 hrs by LC-MS analysis; assay type: ADME, organism-based; details: whole blood
[32] = Volume of distribution at steady state in Sprague-Dawley rat plasma at 2.5 mg/kg, iv up to 24 hrs by LC-MS analysis; assay type: ADME, organism-based; details: read-out: Vdss
[33] = Drug excretion in Sprague-Dawley rat urine at 2.5 mg/kg, iv up to 24 hrs by LC-MS analysis; assay type: ADME, organism-based; details: read-out: Drug excretion
[34] = AUC(0 to infinity) in Sprague-Dawley rat plasma at 2.5 mg/kg, iv up to 24 hrs by LC-MS analysis; assay type: ADME, organism-based; parameters: route intravenous, dose 2.5 mg/kg, time <=24
in vivo = details: Balb/C, mouse, po, at 1.9 to 3.5 mg/kg
[35] = Ratio of drug level in blood to plasma in Sprague-Dawley rat at 2.5 mg/kg, iv up to 24 hrs by LC-MS analysis by LC-MS analysis; assay type: ADME, organism-based; details: blood and plasma
[36] = Plasma clearance in Balb/C mouse at 2.5 mg/kg, iv up to 24 hrs by LC-MS analysis; assay type: ADME, organism-based
[37] = Volume of distribution at steady state in Balb/C mouse blood at 2.6 mg/kg, iv up to 24 hrs by LC-MS analysis; assay type: ADME, organism-based; details: whole blood, read-out: Vdss
[38] = Drug excretion in Sprague-Dawley rat urine at 3.9 mg/kg, iv up to 24 hrs by LC-MS analysis; assay type: ADME, organism-based; details: read-out: Drug excretion
[39] = Clearance in Sprague-Dawley rat renal blood at 3.9 mg/kg, iv up to 24 hrs by LC-MS analysis; assay type: ADME, organism-based; details: whole blood
[40] = Plasma clearance in Balb/C mouse at 2.6 mg/kg, iv up to 24 hrs by LC-MS analysis; assay type: ADME, organism-based
[41] = Ratio of drug level in blood to plasma in Balb/C mouse plasma at 2.6 mg/kg, iv up to 24 hrs by LC-MS analysis; assay type: ADME, organism-based; details: blood and plasma
[42] = AUC(0 to infinity) in Sprague-Dawley rat plasma at 3.9 mg/kg, iv up to 24 hrs by LC-MS analysis; assay type: ADME, organism-based; parameters: route intravenous, dose 3.9 mg/kg, time <=24
[43] = AUC(0 to infinity) in Balb/C mouse plasma at 2.6 mg/kg, iv up to 24 hrs by LC-MS analysis; assay type: ADME, organism-based; parameters: route intravenous, dose 2.6 mg/kg, time <=24
[44] = Ratio of drug level in blood to plasma in Sprague-Dawley rat at 3.9 mg/kg, iv up to 24 hrs by LC-MS analysis by LC-MS analysis; assay type: ADME, organism-based; details: whole blood and plasma
[45] = Volume of distribution at steady state in Balb/C mouse plasma at 2.6 mg/kg, iv up to 24 hrs by LC-MS analysis; assay type: ADME, organism-based; details: read-out: Vdss
[46] = Clearance in Sprague-Dawley rat blood at 3.9 mg/kg, iv up to 24 hrs by LC-MS analysis; assay type: ADME, organism-based; details: whole blood
[47] = Volume of distribution at steady state in Sprague-Dawley rat plasma at 3.9 mg/kg, iv up to 24 hrs by LC-MS analysis; assay type: ADME, organism-based; details: read-out: Vdss
[48] = Half life in Sprague-Dawley rat at 3.9 mg/kg, iv up to 24 hrs by LC-MS analysis; assay type: ADME, organism-based; details: in vivo
[49] = Plasma clearance in Sprague-Dawley rat at 3.9 mg/kg, iv up to 24 hrs by LC-MS analysis; assay type: ADME, organism-based
[50] = Clearance in Balb/C mouse blood at 2.6 mg/kg, iv up to 24 hrs by LC-MS analysis; assay type: ADME, organism-based; details: whole blood
[51] = Apparent half life in Balb/C mouse at 2.6 mg/kg, iv up to 24 hrs by LC-MS analysis; assay type: ADME, organism-based; details: in vivo, read-out: t1/2(app) (converted)
[52] = Drug metabolism in Sprague-Dawley rat at 3.9 mg/kg, iv by LC-MS analysis; assay type: ADME, organism-based; details: in vivo
[53] = Volume of distribution at steady state in Sprague-Dawley rat blood at 3.9 mg/kg, iv up to 24 hrs by LC-MS analysis; assay type: ADME, organism-based; details: whole blood, read-out: Vdss

Chain of Voltage-gated inwardly rectifying potassium channel KCNH2 (Q12809 whole entry): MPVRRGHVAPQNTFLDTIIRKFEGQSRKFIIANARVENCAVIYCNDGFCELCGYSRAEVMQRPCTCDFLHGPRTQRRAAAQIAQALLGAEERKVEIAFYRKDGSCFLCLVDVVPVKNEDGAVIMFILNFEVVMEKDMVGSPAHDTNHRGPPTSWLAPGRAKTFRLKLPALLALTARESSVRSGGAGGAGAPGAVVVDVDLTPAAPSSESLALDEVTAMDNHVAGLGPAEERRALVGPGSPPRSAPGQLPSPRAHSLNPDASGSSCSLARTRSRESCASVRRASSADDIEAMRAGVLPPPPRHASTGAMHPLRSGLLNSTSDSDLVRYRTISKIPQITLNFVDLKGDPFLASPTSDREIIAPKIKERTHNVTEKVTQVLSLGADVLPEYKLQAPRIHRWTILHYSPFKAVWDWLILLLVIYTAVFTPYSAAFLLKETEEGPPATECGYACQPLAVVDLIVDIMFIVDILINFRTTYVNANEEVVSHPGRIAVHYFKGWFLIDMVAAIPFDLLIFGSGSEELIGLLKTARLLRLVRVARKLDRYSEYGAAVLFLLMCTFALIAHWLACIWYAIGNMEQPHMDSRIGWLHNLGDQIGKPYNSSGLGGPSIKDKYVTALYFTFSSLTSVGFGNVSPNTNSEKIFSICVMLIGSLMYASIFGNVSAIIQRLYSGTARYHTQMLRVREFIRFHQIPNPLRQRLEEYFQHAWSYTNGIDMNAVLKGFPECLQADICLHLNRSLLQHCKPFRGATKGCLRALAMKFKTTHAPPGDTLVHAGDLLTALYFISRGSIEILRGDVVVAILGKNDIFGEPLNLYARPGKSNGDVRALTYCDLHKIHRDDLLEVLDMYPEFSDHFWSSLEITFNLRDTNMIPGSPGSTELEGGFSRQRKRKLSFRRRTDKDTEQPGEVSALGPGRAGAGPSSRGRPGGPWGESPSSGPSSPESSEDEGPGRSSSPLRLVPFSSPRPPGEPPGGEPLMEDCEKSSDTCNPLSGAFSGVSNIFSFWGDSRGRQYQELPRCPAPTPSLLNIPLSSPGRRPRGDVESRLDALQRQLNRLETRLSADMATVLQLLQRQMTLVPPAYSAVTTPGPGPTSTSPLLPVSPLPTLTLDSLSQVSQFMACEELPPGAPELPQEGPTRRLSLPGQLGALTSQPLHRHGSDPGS
Chain of Sodium channel protein type 5 subunit alpha (Q14524 whole entry): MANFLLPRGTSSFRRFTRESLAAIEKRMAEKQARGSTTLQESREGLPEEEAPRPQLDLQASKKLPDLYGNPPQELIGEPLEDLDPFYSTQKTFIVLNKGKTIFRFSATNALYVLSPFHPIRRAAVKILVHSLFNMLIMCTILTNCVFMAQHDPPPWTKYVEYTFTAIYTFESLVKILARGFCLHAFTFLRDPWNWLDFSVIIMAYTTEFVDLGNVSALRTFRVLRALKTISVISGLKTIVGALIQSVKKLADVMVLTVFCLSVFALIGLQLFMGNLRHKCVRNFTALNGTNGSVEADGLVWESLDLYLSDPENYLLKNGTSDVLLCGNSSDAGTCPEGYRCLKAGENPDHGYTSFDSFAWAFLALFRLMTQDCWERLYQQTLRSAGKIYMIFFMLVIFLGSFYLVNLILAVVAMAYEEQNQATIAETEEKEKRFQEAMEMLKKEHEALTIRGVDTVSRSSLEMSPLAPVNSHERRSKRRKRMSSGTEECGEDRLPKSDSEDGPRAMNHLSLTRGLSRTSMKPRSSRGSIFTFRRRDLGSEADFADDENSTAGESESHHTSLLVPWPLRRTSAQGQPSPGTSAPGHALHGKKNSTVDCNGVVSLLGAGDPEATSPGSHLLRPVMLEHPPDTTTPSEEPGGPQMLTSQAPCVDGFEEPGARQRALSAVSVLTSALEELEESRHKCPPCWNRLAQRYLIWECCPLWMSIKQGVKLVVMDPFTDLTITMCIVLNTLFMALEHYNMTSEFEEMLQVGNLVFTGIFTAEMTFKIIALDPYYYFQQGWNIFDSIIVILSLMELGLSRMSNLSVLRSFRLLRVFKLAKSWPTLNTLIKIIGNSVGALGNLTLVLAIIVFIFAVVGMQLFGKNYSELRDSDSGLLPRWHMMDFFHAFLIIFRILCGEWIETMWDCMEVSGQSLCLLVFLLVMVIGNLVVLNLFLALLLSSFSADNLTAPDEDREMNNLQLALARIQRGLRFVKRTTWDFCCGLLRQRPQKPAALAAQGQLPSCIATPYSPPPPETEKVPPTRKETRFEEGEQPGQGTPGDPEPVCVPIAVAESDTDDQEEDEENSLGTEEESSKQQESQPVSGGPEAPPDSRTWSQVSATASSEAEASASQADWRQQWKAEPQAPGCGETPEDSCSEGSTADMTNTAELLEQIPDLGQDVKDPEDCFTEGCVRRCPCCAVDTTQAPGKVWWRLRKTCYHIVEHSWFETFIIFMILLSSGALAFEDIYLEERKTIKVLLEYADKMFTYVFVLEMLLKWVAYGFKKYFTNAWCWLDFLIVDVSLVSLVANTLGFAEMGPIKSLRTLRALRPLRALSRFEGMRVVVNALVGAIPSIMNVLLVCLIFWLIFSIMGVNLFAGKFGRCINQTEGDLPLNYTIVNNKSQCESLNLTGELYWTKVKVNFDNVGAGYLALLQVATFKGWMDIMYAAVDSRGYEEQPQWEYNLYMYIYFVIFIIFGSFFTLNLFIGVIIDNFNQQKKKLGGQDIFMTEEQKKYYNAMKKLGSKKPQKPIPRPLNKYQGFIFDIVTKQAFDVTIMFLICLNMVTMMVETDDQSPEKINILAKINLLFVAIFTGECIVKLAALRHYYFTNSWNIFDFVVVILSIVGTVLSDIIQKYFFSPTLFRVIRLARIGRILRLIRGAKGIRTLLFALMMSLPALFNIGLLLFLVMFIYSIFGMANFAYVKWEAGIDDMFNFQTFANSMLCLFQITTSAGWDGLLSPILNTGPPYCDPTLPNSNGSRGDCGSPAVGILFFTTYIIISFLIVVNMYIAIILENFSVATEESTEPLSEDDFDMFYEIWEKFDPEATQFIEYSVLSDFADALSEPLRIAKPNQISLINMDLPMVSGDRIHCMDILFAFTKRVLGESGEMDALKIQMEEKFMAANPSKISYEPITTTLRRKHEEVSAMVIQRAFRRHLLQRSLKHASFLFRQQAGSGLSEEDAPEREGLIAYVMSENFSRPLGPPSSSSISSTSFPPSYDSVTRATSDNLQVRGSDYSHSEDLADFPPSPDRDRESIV

| Structure (SMILES) | half-life at 1 h, 1 µM (in vitro [3]) | Papp B→A at 2 h, 20 µM (in vitro [4]) | recovery at 2 h, 20 µM (in vitro [7]) | solubility kinetic (physchem [8]) | logD [9] | metabolised at 4 h, 1 ug/ml (in vitro [12]) | Papp A→B at 2 h, 20 µM (in vitro [13]) | microsomal CLint at 1 h, 1 µM (in vitro [14]) | IC50 (cells) | fraction unbound at […], 1 ug/ml (in vitro [15]) | CL free [16] | efflux ratio at 2 h, 20 µM (in vitro [18]) | half-life at 1 h, 1 µM (in vitro [20]) | recovery at 2 h, 20 µM (in vitro [21]) | microsomal CLint at 1 h, 1 µM (in vitro [22]) | IC50 [23] | IC50 [24] | solubility kinetic (physchem [25]) | Stabilty [29] | CL free [30] | further results |
| --- | --- | --- | --- | --- | --- | --- | --- | --- | --- | --- | --- | --- | --- | --- | --- | --- | --- | --- | --- | --- | --- |
| N=C(N)NC(=O)c1nc(Cl)c(N2CCCCCC2)nc1N [N,N-HEXAMETHYLENEAMILORIDE] | 0.04 h | 56 ×10⁻⁶ cm/s | 79% | > 100 µg/mL | 3.8 | < 6% | 15 ×10⁻⁶ cm/s | 726 µL/min/mg | 8.3 µM | 0.03 | 2243 µL/min/mg | 3.8 | 1.22 h | 100% | 24 µL/min/mg | 3.3 µM | 30 µM | 50 µg/mL (≈ 160 µM) | Unstable | 74 µL/min/mg | clearance [1]: 59 mL/min/kg; Vd [2]: 2.9 L/kg; Vd [5]: 2 L/kg; Vd [6]: 1.4 L/kg; CL renal at 24 h [10]: 0.2 mL/min/kg; Drug metabolism [11]: Metabolite_Detected; AUC(0-inf) [17]: 1.5 µM·h; blood plasma ratio at 24 h [19]: 1.5; half-life [26]: 3.2 h; half-life [27]: 0.62 h; clearance [28]: 83.5 mL/min/kg; clearance [31]: 46.2 mL/min/kg; Vd [32]: 5.3 L/kg; dose excreted at 24 h [33]: 0.5%; AUC(0-inf) [34]: 1.6 µM·h; bioavailability at 24 h (in vivo): 4.5%; blood plasma ratio at 24 h [35]: 1.8; clearance [36]: 86 mL/min/kg |
| N=C(N)NC(=O)c1nc(-c2cc3ccccc3o2)c(N2CCCCCC2)nc1N | 0.4 h | 12 ×10⁻⁶ cm/s | 29% | 12.5 µg/mL (≈ 31.8 µM) | 5.1 | < 6% | 0.3 ×10⁻⁶ cm/s | 73 µL/min/mg | < 3 µM | 0.02 | 888 µL/min/mg | 40 | 1.13 h | 76% | 26 µL/min/mg | < 3 µM | < 3 µM | 1.6 µg/mL (≈ 4.07 µM) | Unstable | 888 µL/min/mg | Vd [37]: 1.7 L/kg; dose excreted at 24 h [38]: 0.02%; CL renal at 24 h [39]: 0.01 mL/min/kg; clearance [40]: 71 mL/min/kg; blood plasma ratio at 24 h [41]: 1.4; AUC(0-inf) [42]: 2.9 µM·h; AUC(0-inf) [43]: 1.6 µM·h; blood plasma ratio at 24 h [44]: 1.4; Vd [45]: 2.3 L/kg; clearance [46]: 39.5 mL/min/kg; Vd [47]: 12.4 L/kg; half-life [48]: 7 h; clearance [49]: 56.9 mL/min/kg; clearance [50]: 53 mL/min/kg; half-life [51]: 1.7 h; Drug metabolism [52]: Metabolite_Notdetected; bioavailability at 24 h (in vivo): < 5%; Vd [53]: 8.6 L/kg |
